Measurements from article PMC10653547, “Synergistic effect of two antimicrobial peptides, BP203 and MAP-0403 J-2 with conventional antibiotics against colistin-resistant Escherichia coli and Klebsiella pneumoniae clinical isolates” (PLOS ONE, 2023).
Each block holds one compound with its values, some of them ahead of it.

Legend:
[1] = test system: colistin-resistant K. pneumoniae clinical isolates; assay: Checkerboard assay for synergy testing; format: cell-based, Klebsiella pneumoniae
Method: (§1) The synergistic activities of various two-antimicrobial combinations against colistin-resistant E. coli and K. pneumoniae isolates were evaluated using the checkerboard assay, which was performed in 96-well plates. […] Two-fold serial dilutions of peptides and antibiotics were independently prepared in CAMHB. Afterward, a mixture of different concentrations of the antibiotics and peptides was added to the wells of the microplates. Antibiotics and peptides were also dispended alone in the first row and the first column, respectively. Bacterial inoculum was added to the 96-well plate to achieve a final concentration of 5 × 10^5 CFU/mL. Then, plates were incubated at 37 °C for 20–24 h. MICs were recorded as the minimum concentration of antimicrobial agents without bacterial growth. The interaction between the antimicrobials was determined by calculating the fractional inhibitory concentration index (FICI) according to the formula: FICI = FIC(drug A) + FIC(drug B), where FIC = the MIC of the drug when in the combination/MIC of drug tested individually.

[2] = test system: colistin-resistant E. coli clinical isolates; assay: Checkerboard assay for synergy testing; format: cell-based, Escherichia coli
Method: as §1

[3] = checkerboard BP203 x meropenem, KP-01
[4] = checkerboard BP203 x meropenem, KP-02
[5] = checkerboard BP203 x meropenem, KP-03
[6] = checkerboard BP203 x meropenem, KP-04
[7] = checkerboard BP203 x meropenem, KP-05
[8] = checkerboard BP203 x meropenem, KP-06
[9] = checkerboard BP203 x meropenem, KP-08
[10] = checkerboard BP203 x meropenem, KP-09
[11] = checkerboard BP203 x meropenem, KP-10
[12] = checkerboard MAP-0403 J-2 x meropenem, KP-01
[13] = checkerboard MAP-0403 J-2 x meropenem, KP-02
[14] = checkerboard MAP-0403 J-2 x meropenem, KP-03
[15] = checkerboard MAP-0403 J-2 x meropenem, KP-05
[16] = checkerboard MAP-0403 J-2 x meropenem, KP-06
[17] = checkerboard MAP-0403 J-2 x meropenem, KP-07
[18] = checkerboard MAP-0403 J-2 x meropenem, KP-08
[19] = checkerboard MAP-0403 J-2 x meropenem, KP-09
[20] = checkerboard MAP-0403 J-2 x meropenem, KP-10
[21] = isolate EC-01, checkerboard Rifampicin+BP203
[22] = isolate EC-01, checkerboard Rifampicin+MAP-0403 J-2
[23] = isolate EC-02, checkerboard Rifampicin+BP203
[24] = isolate EC-02, checkerboard Rifampicin+MAP-0403 J-2
[25] = isolate EC-03, checkerboard Rifampicin+BP203
[26] = isolate EC-03, checkerboard Rifampicin+MAP-0403 J-2
[27] = isolate EC-04, checkerboard Rifampicin+BP203
[28] = isolate EC-04, checkerboard Rifampicin+MAP-0403 J-2
[29] = isolate EC-05, checkerboard Rifampicin+BP203
[30] = isolate EC-05, checkerboard Rifampicin+MAP-0403 J-2
[31] = isolate EC-06, checkerboard Rifampicin+BP203
[32] = isolate EC-06, checkerboard Rifampicin+MAP-0403 J-2
[33] = isolate EC-07, checkerboard Rifampicin+BP203
[34] = isolate EC-07, checkerboard Rifampicin+MAP-0403 J-2
[35] = isolate EC-08, checkerboard Rifampicin+BP203
[36] = isolate EC-08, checkerboard Rifampicin+MAP-0403 J-2
[37] = isolate EC-09, checkerboard Rifampicin+BP203
[38] = isolate EC-09, checkerboard Rifampicin+MAP-0403 J-2
[39] = isolate EC-10, checkerboard Rifampicin+BP203
[40] = isolate EC-10, checkerboard Rifampicin+MAP-0403 J-2
[41] = isolate KP-01, checkerboard Rifampicin+BP203
[42] = isolate KP-01, checkerboard Rifampicin+MAP-0403 J-2
[43] = isolate KP-02, checkerboard Rifampicin+BP203
[44] = isolate KP-02, checkerboard Rifampicin+MAP-0403 J-2
[45] = isolate KP-03, checkerboard Rifampicin+BP203
[46] = isolate KP-03, checkerboard Rifampicin+MAP-0403 J-2
[47] = isolate KP-04, checkerboard Rifampicin+BP203
[48] = isolate KP-04, checkerboard Rifampicin+MAP-0403 J-2
[49] = isolate KP-05, checkerboard Rifampicin+BP203
[50] = isolate KP-05, checkerboard Rifampicin+MAP-0403 J-2
[51] = isolate KP-06, checkerboard Rifampicin+BP203
[52] = isolate KP-06, checkerboard Rifampicin+MAP-0403 J-2
[53] = isolate KP-07, checkerboard Rifampicin+BP203
[54] = isolate KP-07, checkerboard Rifampicin+MAP-0403 J-2
[55] = isolate KP-08, checkerboard Rifampicin+BP203
[56] = isolate KP-08, checkerboard Rifampicin+MAP-0403 J-2
[57] = isolate KP-09, checkerboard Rifampicin+BP203
[58] = isolate KP-09, checkerboard Rifampicin+MAP-0403 J-2
[59] = isolate KP-10, checkerboard Rifampicin+BP203
[60] = isolate KP-10, checkerboard Rifampicin+MAP-0403 J-2

- MIC alone [1, 3]: 8 µg/mL
- MIC combination [1, 3]: 2 µg/mL
- MIC alone [1, 4]: 16 µg/mL
- MIC combination [1, 4]: 4 µg/mL
- MIC alone [1, 5]: 64 µg/mL
- MIC combination [1, 5]: 16 µg/mL
- MIC alone [1, 6]: 256 µg/mL
- MIC combination [1, 6]: 64 µg/mL
- MIC alone [1, 7]: 64 µg/mL
- MIC combination [1, 7]: 16 µg/mL
- MIC alone [1, 8]: 16 µg/mL
- MIC combination [1, 8]: 4 µg/mL
- MIC combination ([1]; checkerboard BP203 x meropenem, KP-07): 32 µg/mL
- MIC alone [1, 9]: 64 µg/mL
- MIC combination [1, 9]: 8 µg/mL
- MIC alone [1, 10]: 64 µg/mL
- MIC combination [1, 10]: 16 µg/mL
- MIC alone [1, 11]: 16 µg/mL
- MIC combination [1, 11]: 4 µg/mL
- MIC alone [1, 12]: 4 µg/mL
- MIC combination [1, 12]: 2 µg/mL
- MIC alone [1, 13]: 8 µg/mL
- MIC combination [1, 13]: 8 µg/mL
- MIC alone [1, 14]: 32 µg/mL
- MIC combination [1, 14]: 0.25 µg/mL
- MIC alone [1, 15]: 32 µg/mL
- MIC combination [1, 15]: 32 µg/mL
- MIC alone [1, 16]: 8 µg/mL
- MIC combination [1, 16]: 4 µg/mL
- MIC alone [1, 17]: 64 µg/mL
- MIC combination [1, 17]: 64 µg/mL
- MIC alone [1, 18]: 64 µg/mL
- MIC combination [1, 18]: 64 µg/mL
- MIC alone [1, 19]: 64 µg/mL
- MIC combination [1, 19]: 32 µg/mL
- MIC alone [1, 20]: 16 µg/mL
- MIC combination [1, 20]: 8 µg/mL
SMILES: C[C@@H](O)[C@H]1C(=O)N2C(C(=O)O)=C(S[C@@H]3CN[C@H](C(=O)N(C)C)C3)[C@H](C)[C@H]12 [Meropenem, meropenem]

- MIC alone [2, 21]: 2 µg/mL
- MIC combination [2, 21]: 1 µg/mL
- MIC alone [2, 22]: 4 µg/mL
- MIC combination [2, 22]: 0.5 µg/mL
- MIC alone [2, 23]: 4 µg/mL
- MIC combination [2, 23]: 0.25 µg/mL
- MIC alone [2, 24]: 8 µg/mL
- MIC combination [2, 24]: 2 µg/mL
- MIC alone [2, 25]: 4 µg/mL
- MIC combination [2, 25]: 1 µg/mL
- MIC alone [2, 26]: 8 µg/mL
- MIC combination [2, 26]: 0.25 µg/mL
- MIC alone [2, 27]: 4 µg/mL
- MIC combination [2, 27]: 1 µg/mL
- MIC alone [2, 28]: 16 µg/mL
- MIC combination [2, 28]: 4 µg/mL
- MIC alone [2, 29]: 2 µg/mL
- MIC combination [2, 29]: 0.5 µg/mL
- MIC alone [2, 30]: 8 µg/mL
- MIC combination [2, 30]: 2 µg/mL
- MIC alone [2, 31]: 4 µg/mL
- MIC combination [2, 31]: 1 µg/mL
- MIC alone [2, 32]: 8 µg/mL
- MIC combination [2, 32]: 1 µg/mL
- MIC alone [2, 33]: 4 µg/mL
- MIC combination [2, 33]: 1 µg/mL
- MIC alone [2, 34]: 16 µg/mL
- MIC combination [2, 34]: 4 µg/mL
- MIC alone [2, 35]: 2 µg/mL
- MIC combination [2, 35]: 0.5 µg/mL
- MIC alone [2, 36]: 8 µg/mL
- MIC combination [2, 36]: 0.25 µg/mL
- MIC alone [2, 37]: 4 µg/mL
- MIC combination [2, 37]: 2 µg/mL
- MIC alone [2, 38]: 8 µg/mL
- MIC combination [2, 38]: 0.5 µg/mL
- MIC alone [2, 39]: 2 µg/mL
- MIC combination [2, 39]: 0.5 µg/mL
- MIC alone [2, 40]: 8 µg/mL
- MIC combination [2, 40]: 0.5 µg/mL
- MIC alone [1, 41]: 512 µg/mL
- MIC combination [1, 41]: 16 µg/mL
- MIC alone [1, 42]: 256 µg/mL
- MIC combination [1, 42]: 16 µg/mL
- MIC alone [1, 43]: 512 µg/mL
- MIC combination [1, 43]: 4 µg/mL
- MIC alone [1, 44]: 256 µg/mL
- MIC combination [1, 44]: 16 µg/mL
- MIC alone [1, 45]: 32 µg/mL
- MIC combination [1, 45]: 4 µg/mL
- MIC alone [1, 46]: 32 µg/mL
- MIC combination [1, 46]: 2 µg/mL
- MIC alone [1, 47]: 128 µg/mL
- MIC combination [1, 47]: 4 µg/mL
- MIC alone [1, 48]: 256 µg/mL
- MIC combination [1, 48]: 32 µg/mL
- MIC alone [1, 49]: 16 µg/mL
- MIC combination [1, 49]: 1 µg/mL
- MIC alone [1, 50]: 16 µg/mL
- MIC combination [1, 50]: 1 µg/mL
- MIC alone [1, 51]: 512 µg/mL
- MIC combination [1, 51]: 8 µg/mL
- MIC alone [1, 52]: 256 µg/mL
- MIC combination [1, 52]: 32 µg/mL
- MIC alone [1, 53]: 32 µg/mL
- MIC combination [1, 53]: 4 µg/mL
- MIC alone [1, 54]: 32 µg/mL
- MIC combination [1, 54]: 2 µg/mL
- MIC alone [1, 55]: 16 µg/mL
- MIC combination [1, 55]: 4 µg/mL
- MIC alone [1, 56]: 16 µg/mL
- MIC combination [1, 56]: 2 µg/mL
- MIC alone [1, 57]: 512 µg/mL
- MIC combination [1, 57]: 32 µg/mL
- MIC alone [1, 58]: 256 µg/mL
- MIC combination [1, 58]: 128 µg/mL
- MIC alone [1, 59]: 32 µg/mL
- MIC combination [1, 59]: 4 µg/mL
- MIC alone [1, 60]: 32 µg/mL
- MIC combination [1, 60]: 2 µg/mL
SMILES: CO[C@H]1/C=C/O[C@@]2(C)Oc3c(C)c(O)c4c(O)c(c(/C=N/N5CCN(C)CC5)c(O)c4c3C2=O)NC(=O)/C(C)=C\C=C\[C@H](C)[C@H](O)[C@@H](C)[C@@H](O)[C@@H](C)[C@H](OC(C)=O)[C@@H]1C [RIF, rifampicin]
